{
  "source": "patent US11160782B2",
  "about": "“Method for producing nobiletin-containing solid dispersion” (KAO CORPORATION, priority 2016, dated 2021)",
  "key": {"[1]": {"assay": "Solubility in water at 25° C. of the poorly water-soluble raw material", "conditions": "raw material (poorly water-soluble substance) of the composition"}, "[2]": {"assay": "Transferability of nobiletin into blood circulation during oral administration to mice", "format": "in vivo", "conditions": "male, C57BL/6J, mouse, 200 mg/kg, plasma", "excerpt": "[Evaluation of Transferability of Nobiletin into Blood Circulation During Oral Administration to Mice]\nC57BL/6J mice (male, 6 week-old) were purchased from CLEA Japan, Inc. The mice were habituated to the environment for one week or more, and were fed to a test. Each of the test groups consisted of 8 mice, which was believed to be the minimum number required to ensure the statistical significance of the test system.\nMice were bred in the facility for one week under ad libitum feeding of solid food (CE-s), and the test was performed using the mice. The mice were fasted for 16 hours, and blood was initially collected from the orbital sinus of each mouse under isoflurane anesthesia (heparin-treated micro hematocrit blood collection tube, manufactured by VITREX Medical A/S). Each sample solution was then administrated into the stomach of the mice at a dose of 200 mg/kg weight per mouse using a probe. […]\nThe collected blood samples were centrifuged at 12,000 rpm for 10 minutes, and 30 μL of plasma in each sample was recovered into an Eppendorf tube. […] The nobiletin concentration in the plasma was measured by LC-MS/MS.\n30 μL of acetonitrile was added to 30 μL of the recovered plasma, was stirred with a vortex mixer for 5 seconds, and was centrifuged at 12,000 rpm for 15 minutes at room temperature. […] The nobiletin concentration was then measured by LC-MS/MS."}},
  "data": [
    {"smiles": "O=c1oc2c(O)c(O)cc3c(=O)oc4c(O)c(O)cc1c4c23", "note": "[Ellagic acid, Ellagic acid dihydrate]", "values": [
      {"measurement": "Solubility in water at 25° C.", "setting": "[1]", "result": 4, "unit": "ppm"}
    ]},
    {"smiles": "COc1ccc([C@@H]2CC(=O)c3c(O)cc(O[C@@H]4O[C@H](CO[C@@H]5O[C@@H](C)[C@H](O)[C@@H](O)[C@H]5O)[C@@H](O)[C@H](O)[C@H]4O)cc3O2)cc1O", "note": "[Hesperidin]", "values": [
      {"measurement": "Solubility in water at 25° C.", "setting": "[1]", "result": 0.5, "unit": "ppm"}
    ]},
    {"smiles": "COc1ccc(-c2cc(=O)c3c(OC)c(OC)c(OC)c(OC)c3o2)cc1OC", "note": "[Nobiletin, 3′,4′,5,6,7,8-hexamethoxyflavone]", "values": [
      {"measurement": "AUC", "setting": "[2]; read-out: AUC (area under the blood concentration transition curve) (converted)", "result": 5380, "unit": "ng·h/mL"},
      {"measurement": "Cmax", "setting": "[2]; read-out: Cmax (maximum blood concentration of nobiletin)", "result": 3700, "unit": "ng/mL"},
      {"measurement": "Solubility in water at 25° C.", "setting": "[1]", "result": 1, "unit": "ppm"}
    ]}
  ]
}
